Assay results from PubChem BioAssay AID270 (DTP/NCI, 2004).
Several values for one entry are separate records, joined by “and”; a condition that tells them apart may be missing. Identical values can stand only once. Results filed as inconclusive are left out.

Tested on: BDF1 mice, s.c. Lewis lung carcinoma, T/C %
Test: NCI In Vivo Anticancer Drug Screen. Data for tumor model Lewis Lung Carcinoma (subcutaneous) in B6D2F1 (BDF1) mice
Procedure: The antitumor activity of compounds was measured in mice bearing transplantable tumors. Survival or tumor size were measured and the results are expressed as the measurement made in the treated group (T) divided by the measurement made in the vehicle treated control group (C). The tumor model used in this assay is Lewis Lung Carcinoma (subcutaneous) in B6D2F1 (BDF1) mice

[1] = endpoint: median survival time, dose: 2.5 mg/kg/injection, schedule: Q01DX009 (ip), vehicle: water, higher = longer survival
[2] = endpoint: median survival time, dose: 5.0 mg/kg/injection, schedule: Q01DX009 (ip), vehicle: water, higher = longer survival

SMILES: COc1cc(-c2ccc(Nc3ccccc3C(=O)O)c(OC)c2)ccc1N
- T/C (endpoint: mean tumor weight, dose: 10.0 mg/kg/injection, schedule: Q01DX011 (ip), vehicle: carboxymethylcellulose (CMC), higher = larger tumour): 86 % of control
- T/C (endpoint: mean tumor weight, dose: 20.0 mg/kg/injection, schedule: Q01DX011 (ip), vehicle: carboxymethylcellulose (CMC), higher = larger tumour): 72 % of control
- T/C (endpoint: mean tumor weight, dose: 40.0 mg/kg/injection, schedule: Q01DX011 (ip), vehicle: carboxymethylcellulose (CMC), higher = larger tumour): 37 % of control

SMILES: CCCCS(=O)CC(CO)NC(=O)/C=C/c1c(C)[nH]c(=O)[nH]c1=O (stereo unspecified)
- T/C (endpoint: median survival time, dose: 0.63 mg/kg/injection, schedule: Q01DX009 (ip), vehicle: water, higher = longer survival): 101 % of control
- T/C [1]: 113 % of control
- T/C [2]: 89 % of control

SMILES: CN(C)CC(Cl)CCl (stereo unspecified)
- T/C (endpoint: median survival time, dose: 50.0 mg/kg/injection, schedule: Q01DX009 (ip), vehicle: saline, higher = longer survival): 117 % of control
- T/C (endpoint: median survival time, dose: 100.0 mg/kg/injection, schedule: Q01DX009 (ip), vehicle: saline, higher = longer survival): 122 % of control
- T/C (endpoint: median survival time, dose: 200.0 mg/kg/injection, schedule: Q01DX009 (ip), vehicle: saline, higher = longer survival): 105 % of control

SMILES: CC(=O)c1c(O)c(C)c(O)c(Cc2c(O)c3c(c(C(=O)/C=C/c4ccccc4)c2O)OC(C)(C)C=C3)c1O
- T/C (endpoint: mean tumor weight, dose: 15.0 mg/kg/injection, schedule: Q01DX011 (ip), vehicle: saline, higher = larger tumour): 96 % of control
- T/C (endpoint: mean tumor weight, dose: 22.0 mg/kg/injection, schedule: Q01DX011 (ip), vehicle: saline, higher = larger tumour): 82 % of control
- T/C (endpoint: mean tumor weight, dose: 35.0 mg/kg/injection, schedule: Q01DX011 (ip), vehicle: saline, higher = larger tumour): 79 % of control

SMILES: O=C(O)CCC(=O)O
- T/C (endpoint: median survival time, dose: 0.62 mg/kg/injection, schedule: Q01DX009 (ip), vehicle: water, higher = longer survival): 110 % of control
- T/C (endpoint: median survival time, dose: 1.25 mg/kg/injection, schedule: Q01DX009 (ip), vehicle: water, higher = longer survival): 103 % of control
- T/C [1]: 93 % of control
- T/C [2]: 93 % of control and 108 % of control
- T/C (endpoint: median survival time, dose: 10.0 mg/kg/injection, schedule: Q01DX009 (ip), vehicle: water, higher = longer survival): 102 % of control and 107 % of control
- T/C (endpoint: median survival time, dose: 20.0 mg/kg/injection, schedule: Q01DX009 (ip), vehicle: water, higher = longer survival): 106 % of control and 115 % of control and 97 % of control
- T/C (endpoint: median survival time, dose: 40.0 mg/kg/injection, schedule: Q01DX009 (ip), vehicle: water, higher = longer survival): 96 % of control and 103 % of control and 108 % of control
- T/C (endpoint: median survival time, dose: 80.0 mg/kg/injection, schedule: Q01DX009 (ip), vehicle: water, higher = longer survival): 104 % of control

SMILES: C=C(C)C12CC(C)C34OC5(CCCCCCCC(C)C6C(C)C(OC(=O)c7ccccc7)C(O)(C(O)C7(COC(=O)CCCCCCCCCCCCCCC)OC7C3C1O5)C64)O2 (stereo unspecified)
- T/C (endpoint: median survival time, dose: 1.0 micrograms/kg/injection, schedule: Q01DX009 (ip), vehicle: Klucel (hydroxypropylcellulose) (HPC), higher = longer survival): 93 % of control
- T/C (endpoint: median survival time, dose: 1.9 micrograms/kg/injection, schedule: Q01DX009 (ip), vehicle: Klucel (hydroxypropylcellulose) (HPC), higher = longer survival): 209 % of control
- T/C (endpoint: median survival time, dose: 2.0 micrograms/kg/injection, schedule: Q01DX009 (ip), vehicle: Klucel (hydroxypropylcellulose) (HPC), higher = longer survival): 86 % of control
- T/C (endpoint: median survival time, dose: 3.8 micrograms/kg/injection, schedule: Q01DX009 (ip), vehicle: Klucel (hydroxypropylcellulose) (HPC), higher = longer survival): 208 % of control
- T/C (endpoint: median survival time, dose: 4.0 micrograms/kg/injection, schedule: Q01DX009 (ip), vehicle: Klucel (hydroxypropylcellulose) (HPC), higher = longer survival): 97 % of control
- T/C (endpoint: median survival time, dose: 7.5 micrograms/kg/injection, schedule: Q01DX009 (ip), vehicle: Klucel (hydroxypropylcellulose) (HPC), higher = longer survival): 209 % of control
- T/C (endpoint: median survival time, dose: 8.0 micrograms/kg/injection, schedule: Q01DX009 (ip), vehicle: Klucel (hydroxypropylcellulose) (HPC), higher = longer survival): 96 % of control
- T/C (endpoint: median survival time, dose: 15.0 micrograms/kg/injection, schedule: Q01DX009 (ip), vehicle: Klucel (hydroxypropylcellulose) (HPC), higher = longer survival): 101 % of control
- T/C (endpoint: median survival time, dose: 16.0 micrograms/kg/injection, schedule: Q01DX009 (ip), vehicle: Klucel (hydroxypropylcellulose) (HPC), higher = longer survival): 88 % of control

SMILES: CC(C)C(=O)[O][Sn]([c]1ccccc1)([c]1ccccc1)[c]1ccccc1
- T/C (endpoint: median survival time, dose: 3.0 mg/kg/injection, schedule: Q01DX009 (ip), vehicle: saline with Tween-80, higher = longer survival): 110 % of control
- T/C (endpoint: median survival time, dose: 6.0 mg/kg/injection, schedule: Q01DX009 (ip), vehicle: saline with Tween-80, higher = longer survival): 106 % of control
- T/C (endpoint: median survival time, dose: 12.0 mg/kg/injection, schedule: Q01DX009 (ip), vehicle: saline with Tween-80, higher = longer survival): 97 % of control

SMILES: CSc1ccc(NC(=O)N(CCCl)N=O)cc1
- T/C (endpoint: median survival time, dose: 6.25 mg/kg/injection, schedule: Q01DX009 (ip), vehicle: Klucel (hydroxypropylcellulose) (HPC), higher = longer survival): 115 % of control
- T/C (endpoint: median survival time, dose: 12.5 mg/kg/injection, schedule: Q01DX009 (ip), vehicle: Klucel (hydroxypropylcellulose) (HPC), higher = longer survival): 90 % of control
- T/C (endpoint: median survival time, dose: 25.0 mg/kg/injection, schedule: Q01DX009 (ip), vehicle: Klucel (hydroxypropylcellulose) (HPC), higher = longer survival): 106 % of control
- T/C (endpoint: median survival time, dose: 50.0 mg/kg/injection, schedule: Q01DX009 (ip), vehicle: Klucel (hydroxypropylcellulose) (HPC), higher = longer survival): 103 % of control
